Test results published in BigSolDB 2.1.

COc1ccc(-c2nn(-c3ccccc3)cc2/C=C/C(=O)c2nc3ccccc3[nH]2)cc1OC
solubility (mole fraction)
Settings | in acetonitrile | in ethanol | in ethyl acetate | in methanol | in n-butanol | in n-pentanol | in n-propanol
298.15 K | 0.000113 | 3.91e-05 | 0.000355 | 3.04e-05 | 0.00016 | 0.00031 | 0.000125
303.15 K | 0.000135 | 5e-05 | 0.000425 | 3.6e-05 | 0.000209 | 0.00033 | 0.00014
308.15 K | 0.000152 | 5.88e-05 | 0.000471 | 4.06e-05 | 0.000244 | 0.000354 | 0.00015
313.15 K | 0.00017 | 7.16e-05 | 0.00052 | 4.47e-05 | 0.00028 | 0.000375 | 0.000167
318.15 K | 0.000189 | 8.46e-05 | 0.000554 | 5.02e-05 | 0.000321 | 0.000395 | 0.000185
323.15 K | 0.00021 | 0.0001 | 0.00059 | 5.5e-05 | 0.00035 | 0.000412 | 0.0002
328.15 K | 0.00023 | 0.000111 | 0.000629 | 6.53e-05 | 0.00039 | 0.00043 | 0.00022

O=C(/C=C/c1cn(-c2ccccc2)nc1-c1cccc([N+](=O)[O-])c1)c1nc2ccccc2[nH]1
solubility (mole fraction)
Settings | in acetonitrile | in ethanol | in ethyl acetate | in methanol | in n-butanol | in n-pentanol | in n-propanol
298.15 K | 0.000103 | 5.53e-05 | 0.0013 | 4.04e-05 | 0.000202 | 0.000281 | 0.000115
303.15 K | 0.000123 | 6.2e-05 | 0.00149 | 4.85e-05 | 0.000236 | 0.000326 | 0.000135
308.15 K | 0.000148 | 7.01e-05 | 0.0017 | 5.5e-05 | 0.000279 | 0.000368 | 0.000164
313.15 K | 0.000163 | 8.42e-05 | 0.00194 | 5.9e-05 | 0.000324 | 0.000424 | 0.000175
318.15 K | 0.00019 | 9.46e-05 | 0.00217 | 6.59e-05 | 0.000359 | 0.000455 | 0.000206
323.15 K | 0.000216 | 0.000103 | 0.00244 | 7.4e-05 | 0.000402 | 0.000513 | 0.000226
328.15 K | 0.000232 | 0.000119 | 0.00277 | 8.21e-05 | 0.000445 | 0.000557 | 0.000251
